For test [1], the target named is T1, MMP-2 (72 kDa gelatinase A) (Homo sapiens, UniProt P08253).
T1 sequence (P08253 110-660): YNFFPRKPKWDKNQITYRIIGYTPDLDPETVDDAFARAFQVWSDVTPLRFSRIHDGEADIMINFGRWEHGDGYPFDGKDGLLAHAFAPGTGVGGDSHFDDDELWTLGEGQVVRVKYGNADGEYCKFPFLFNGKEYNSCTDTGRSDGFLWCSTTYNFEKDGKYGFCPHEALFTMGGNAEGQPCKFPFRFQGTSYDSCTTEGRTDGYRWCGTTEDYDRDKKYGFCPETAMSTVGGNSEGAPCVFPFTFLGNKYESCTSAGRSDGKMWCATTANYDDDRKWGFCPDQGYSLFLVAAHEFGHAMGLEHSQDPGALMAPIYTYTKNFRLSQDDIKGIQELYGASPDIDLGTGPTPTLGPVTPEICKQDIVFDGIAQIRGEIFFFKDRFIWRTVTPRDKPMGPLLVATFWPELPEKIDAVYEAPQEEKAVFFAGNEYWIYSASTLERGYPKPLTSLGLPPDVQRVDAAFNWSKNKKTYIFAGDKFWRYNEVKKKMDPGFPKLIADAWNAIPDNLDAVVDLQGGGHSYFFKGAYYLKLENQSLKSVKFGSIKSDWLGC
Briefly: Enzymatic Inhibition of Metalloproteinases (MMP-2). The class given is biochemical. Particulars: 20 μM substrate, pH 7.7, 37° C., six hours; read-out: IC50 for the enzyme MMP-2. The protocol:
(§1) Enzymatic Inhibition of Metalloproteinases
(§2) Four recombinant human enzymes MMP-1 (interstitial collagenase), MMP-2 (72 kDa gelatinase A), MMP-3 (stromelysin 1) and MMP-9 (92 kDa gelatinase B) are activated with APMA (4-aminophenylmercuric acetate).
(§3) The enzymatic tests are carried out using a peptido-mimetic substrate:
(§4) DnpProChaGlyCys(Me)HisAlaLys(Nma)NH2,
(§5) which is cleaved between the glycine and the cysteine to yield a fluorescent derivative (Anal. Biochem., 212, 58-64, 1993).
(§6) The reactions, carried out in a buffer of 50 mM Tris, 200 mM NaCl, 5 mM CaCl2, 0.1% Brij 35 at pH 7.7, are initiated using 20 μM substrate in a total volume of 100 μl at 37° C. The fluorescence obtained after six hours is read in a 96-well plate in a fluorimeter equipped with a combination of 340 nm and 400 nm filters for excitation and emission.

The target of test [2] is MMP-3 (stromelysin 1) (Homo sapiens, UniProt P08254). In words: Enzymatic Inhibition of Metalloproteinases (MMP-3). The class given is biochemical. The settings on record: 20 μM substrate, pH 7.7, 37° C., six hours; read-out: IC50 for the enzyme MMP-3. The protocol: as §1, §2, §3, §4, §5, §6
MMP-3 (stromelysin 1), sequence (P08254 100-477): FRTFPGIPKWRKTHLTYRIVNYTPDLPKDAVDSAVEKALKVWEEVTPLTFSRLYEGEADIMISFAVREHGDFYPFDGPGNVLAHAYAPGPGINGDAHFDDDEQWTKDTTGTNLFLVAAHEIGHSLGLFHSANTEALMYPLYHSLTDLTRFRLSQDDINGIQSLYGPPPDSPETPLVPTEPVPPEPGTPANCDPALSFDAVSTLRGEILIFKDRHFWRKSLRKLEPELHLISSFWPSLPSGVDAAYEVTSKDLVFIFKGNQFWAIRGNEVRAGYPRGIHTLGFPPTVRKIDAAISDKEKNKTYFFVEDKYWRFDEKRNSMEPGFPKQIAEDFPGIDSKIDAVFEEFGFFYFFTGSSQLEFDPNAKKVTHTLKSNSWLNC
Test [3] addresses MMP-9 (92 kDa gelatinase B) (Homo sapiens, UniProt P14780). In words: Enzymatic Inhibition of Metalloproteinases (MMP-9). Format: biochemical. The settings on record: 20 μM substrate, pH 7.7, 37° C., six hours; read-out: IC50 for the enzyme MMP-9. The procedure:
as §1, §2, §3, §4, §5, §6

In test [4] the test system is ovarian cancers. Particulars: Becket et al., DDT 1996, 1 (1), 16; cited from earlier work.
Test [5] concerns neovascularisation (pseudo-vessels) from portions of thoracic aorta. In words: In Vitro Angiogenesis (thoracic aorta portions in type I collagen gel). The class given is cell-based, male Fischer 344 rats. The settings on record: Rattus norvegicus, 120 h, five days of culture in a medium without serum, vascular density. An excerpt:
Portions of thoracic aorta of male Fischer 344 rats aged from 8 to 12 weeks are immersed in a type I collagen gel according to the method of Nicosia et Ottinetti (1990). After five days of culture in a medium without serum, the preparations are examined using a microscope and the formation of pseudo-vessels is quantified in terms of vascular density after digitisation and image analysis.

The target in test [6] is T2, MMP-1 (interstitial collagenase) (Homo sapiens, UniProt P03956).
T2 sequence (P03956 100-469): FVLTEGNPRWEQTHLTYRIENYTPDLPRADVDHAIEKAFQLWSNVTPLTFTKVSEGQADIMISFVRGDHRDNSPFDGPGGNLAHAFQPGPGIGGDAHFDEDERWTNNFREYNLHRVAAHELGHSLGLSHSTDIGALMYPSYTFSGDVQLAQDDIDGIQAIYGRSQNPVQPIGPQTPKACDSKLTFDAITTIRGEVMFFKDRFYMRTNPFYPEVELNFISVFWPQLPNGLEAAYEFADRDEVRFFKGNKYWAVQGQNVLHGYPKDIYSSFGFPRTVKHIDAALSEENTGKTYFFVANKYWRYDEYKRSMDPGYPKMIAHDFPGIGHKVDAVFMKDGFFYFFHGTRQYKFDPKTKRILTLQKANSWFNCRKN
Briefly: Enzymatic Inhibition of Metalloproteinases (MMP-1). The class given is biochemical. The settings on record: 20 μM substrate, pH 7.7, 37° C., six hours; read-out: IC50 for the enzyme MMP-1. The protocol:
as §1, §2, §3, §4, §5, §6

Data on five compounds can be found in patent US6066633A, “Metalloproteinase inhibitors” (Adir et Compagnie, priority 1997, dated 2000).

Counter-ions that a name gives are not always drawn.

MMP-9 (92 kDa gelatinase B), sequence (P14780 107-707 limits assumed): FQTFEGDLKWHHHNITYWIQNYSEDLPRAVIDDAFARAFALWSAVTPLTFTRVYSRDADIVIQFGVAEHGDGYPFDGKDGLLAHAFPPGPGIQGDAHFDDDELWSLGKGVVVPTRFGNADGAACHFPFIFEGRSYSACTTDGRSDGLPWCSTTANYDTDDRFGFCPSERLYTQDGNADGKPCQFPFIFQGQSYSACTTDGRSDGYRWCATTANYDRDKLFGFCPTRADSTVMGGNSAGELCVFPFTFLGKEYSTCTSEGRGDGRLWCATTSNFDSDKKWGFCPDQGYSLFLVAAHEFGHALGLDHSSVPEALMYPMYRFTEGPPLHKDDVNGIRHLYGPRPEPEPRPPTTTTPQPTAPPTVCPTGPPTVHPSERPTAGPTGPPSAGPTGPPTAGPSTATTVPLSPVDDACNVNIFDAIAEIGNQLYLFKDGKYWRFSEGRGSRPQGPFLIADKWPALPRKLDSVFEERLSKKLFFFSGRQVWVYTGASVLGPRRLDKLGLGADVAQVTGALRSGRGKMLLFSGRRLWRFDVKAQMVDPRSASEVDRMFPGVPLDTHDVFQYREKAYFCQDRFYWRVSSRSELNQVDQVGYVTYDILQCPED

Take `COc1ccc(S(=O)(=O)N2Cc3c(c4ccccc4n3CC(=O)NCCSCCN3CCOCC3)C[C@@H]2C(=O)NO)cc1` [Example 11, 2-[(4-Methoxyphenyl)sulphonyl]-9-{[2-(2-morpholin-4-ylethylsulphanyl)ethylcarbamoyl]methyl}-2,3,4,9-tetrahydro-1H-β-carboline-(3R)-(N-hydroxy)carboxamide Hydrochloride]: the IC50 in test [1] was 1.6 nM; in test [2], 3.1 nM; in test [3], 0.1 nM.

Consider `CNC(=O)C(Cc1ccccc1)NC(=O)C(CC(C)C)C(CSc1cccs1)C(=O)NO` (centres unmarked) [BB94], for which the “anti-tumour activity in clinical use” value in test [4] is given as “active in ovarian cancers”.

In test [5], `COc1ccc(S(=O)(=O)N2Cc3c(c4ccccc4n3CC(=O)N(C)CCN3CCOCC3)C[C@@H]2C(=O)NO)cc1` [Example 15, 2-[(4-Methoxyphenyl)sulphonyl]-9-[N-methyl-(2-morpholin-4-ylethylcarbamoyl)methyl]-2,3,4,9-tetrahydro-1H-β-carboline-(3R)-(N-hydroxy)carboxamide Hydrochloride] gave an inhibition at 1 µM of 50 to 100%.

As for `COc1ccc(S(=O)(=O)N2Cc3c(c4ccccc4n3CC(=O)NCCN3CCOCC3)C[C@@H]2C(=O)NO)cc1` [Example 2, 2-[(4-Methoxyphenyl)sulphonyl]-9-[(2-morpholin-4-ylethylcarbamoyl)methyl]-2,3,4,9-tetrahydro-1H-β-carboline-(3R)-(N-hydroxy)carboxamide Acetate], the IC50 in test [6] came to 32.6 nM. For the same compound, the inhibition at 1 µM in test [5] fell in the range of 50 to 100%.

On to `COc1ccc(S(=O)(=O)N2Cc3c(c4ccccc4n3CC(=O)NCCSCCCN3CCOCC3)C[C@@H]2C(=O)NO)cc1` [Example 13, 2-[(4-Methoxyphenyl)sulphonyl]-9-{[2-(3-morpholin-4-ylpropylsulphanyl)ethylcarbamoyl]methyl}-2,3,4,9-tetrahydro-1H-β-carboline-(3R)-(N-hydroxy)carboxamide Hydrochloride], for which the inhibition at 1 µM in test [5] was 50 to 100%.

As usually defined, the IC50 is the midpoint of a concentration-inhibition curve. Usually inhibition stands for the drop in the measured response relative to a control, in per cent. A lower inhibition goes with little suppression.
